Assay results as given in patent US10167264B2, “Substituted pyrimidines useful as EGFR-T790M kinase inhibitors” (JIANGSU MEDOLUTION LTD, priority 2014, dated 2019).
“Also recorded” adds a separate entry of the source.

Columns and labels:
NCI-H1975 = assay: Cell proliferation assay (MTT) against cancer cell line NCI-H1975; type: cell-based; details: Homo sapiens, NCI-H1975, 72 hours treatment, quantity not given
Method: A Representative Number of Compounds were Assayed Against Cancer Cell Lines NCI-H1975, Using the Cell Proliferation Assay:
1. 5×10^3 cells per well in 100 μl of medium were seeded in 96-well plate, while the medium contained 5% FBS
2. 24 hours later, 100 μl fresh medium was added with various concentrations of compounds into each well, while the medium here was free of FBS
3. After the cells were treated with compounds for 72 hours, 20 μl MTT (5 mg/ml) was added into each well, and then the assay plate was incubated at 37° C. for 4 more hours.
4. The assay plate was centrifuged at 800 g for 10 min. The medium was aspirated, 150 μl DMSO was added into each well. The plate was gently shaken for 10 min.
5. The absorbance at 570 nm was measured on the plate reader.

[1] = system: NCI-H1975 cell line xenograft; assay: Subcutaneous NCI-H1975 cell line xenograft model in nude mice; type: in vivo; details: for Tumor growth inhibition (TGI, %) in NCI-H1975 xenograft model: nude mice; for Efficacy in the NCI-H1975 xenograft study (in words): Day 14
Method: A representative protocol for the in vivo experiment is as follows to establish the subcutaneous NCI-H1975 cell line xenograft model in nude mice and to evaluate the in vivo therapeutic efficacy of the compounds: H1975 cells were cultured in RPMI1640 containing 10% fetal bovine serum, 1% L-glutamine, 100 U/mL penicillinG and 100 μg/mL streptomycin. Cells in logarithmic growth phase were harvested and resuspended in 1×PBS for implantation. Tumor xenografts were established by injecting tumor cells 5×10^6/mouse into the right flank by sc under sterile conditions. When the tumors reached an appropriate size (100-200 mm^3), mice were randomized into 6 mice per group (8 mice in control group). The tumors were measured using a caliper in two dimensions, length (a), and width (b). Tumor volumes were estimated from measurements of two diameters of the individual tumors as follows: Tumor Volume (mm^3)=(a×b^2)/2 The tumor sizes and animal body weights were measured twice a week. Mice were observed daily for clinical signs. Blood samples were collected 2 hours after the last treatment, plasma samples were prepared and stored at −80° C. Tumor tissues were separated, weighed, taken picture, and subsequently stored at −80° C. for further analysis. All animal experiments were performed in accordance with the Guidelines for Use and Care of Animals of the University of Traditional Medicine. The parameters for in vivo efficacy evaluation were calculated according to the guidance of SFDA. Percent T/C (%) was calculated with the following formula: T/C(%)=(TRTV/CRTV)×100%, where TRTV and CRTV stand for relative tumor volume in treatment group and vehicle control group, respectively. Relative tumor volume (RTV) was calculated using the formula: RTV=Vt/V0, where Vt represents volume on testing day, and V0 represents volume on first day of treatment. […] At the study endpoint, after blood collection, mice were practised euthanasia by cervical dislocation, the tumor tissue was collected first, then the abdominal cavity was cut open, liver and spleen were excised, and weighted after the gallblader was removed respectively. Organ weights between the treated versus the control groups were compared.

EGFR (T790M/L858R) = EGFR (T790M/L858R) (Homo sapiens (Human), UniProt P00533, L858R/T790M); assay: In vitro EGFR (T790M/L858R) kinase binding assay (Kd, qPCR readout)
Method: (§1) Kinase-tagged T7 phage strains were prepared in an E. coli host derived from the BL21 strain. E. coli were grown to log-phase and infected with T7 phage and incubated with shaking at 32° C. until lysis. The lysates were centrifuged and filtered to remove cell debris. The remaining kinases were produced in HEK-293 cells and subsequently tagged with DNA for qPCR detection. Streptavidin-coated magnetic beads were treated with biotinylated small molecule ligands for 30 minutes at room temperature to generate affinity resins for kinase assays. The liganded beads were blocked with excess biotin and washed with blocking buffer (SeaBlock (Pierce), 1% BSA, 0.05% Tween 20, 1 mM DTT) to remove unbound ligand and to reduce non-specific binding. […] All reactions were performed in polystyrene 96-well plates in a final volume of 0.135 ml. […] The kinase concentration in the eluates was measured by qPCR.
(§2) An 11-point 3-fold serial dilution of each test compound was prepared in 100% DMSO at 100× final test concentration and subsequently diluted to 1× in the assay (final DMSO concentration=1%). Kds were determined using a compound top concentration=10,000 nM.
Binding constants (Kds) were calculated with a standard dose-response curve using the Hill equation: Response=Background+(Signal−Background)/(1+(Kd^Hill Slope/Dose^Hill Slope)). The Hill Slope was set to −1. Curves were fitted using a non-linear least square fit with the Levenberg-Marquardt algorithm.

EGFR = EGFR (Homo sapiens (Human), UniProt P00533); assay: In vitro EGFR kinase binding assay (Kd), similar condition
Method: as §1, §2
(§3) Binding constants (Kds) were calculated with a standard dose-response curve using the Hill equation: Response=Background+(Signal−Background)/(1+(Kd^Hill Slope/Dose^Hill Slope)). The Hill Slope was set to −1. […]

EGFR (E746-A750del) = EGFR (E746-A750del) (Homo sapiens (Human), UniProt P00533, DEL746-750); assay: In vitro EGFR (E746-A750del) kinase binding assay (Kd), similar condition
Method: as §1, §2, §3

Chain of EGFR (T790M/L858R) (P00533 25-1210 T790M/L858R): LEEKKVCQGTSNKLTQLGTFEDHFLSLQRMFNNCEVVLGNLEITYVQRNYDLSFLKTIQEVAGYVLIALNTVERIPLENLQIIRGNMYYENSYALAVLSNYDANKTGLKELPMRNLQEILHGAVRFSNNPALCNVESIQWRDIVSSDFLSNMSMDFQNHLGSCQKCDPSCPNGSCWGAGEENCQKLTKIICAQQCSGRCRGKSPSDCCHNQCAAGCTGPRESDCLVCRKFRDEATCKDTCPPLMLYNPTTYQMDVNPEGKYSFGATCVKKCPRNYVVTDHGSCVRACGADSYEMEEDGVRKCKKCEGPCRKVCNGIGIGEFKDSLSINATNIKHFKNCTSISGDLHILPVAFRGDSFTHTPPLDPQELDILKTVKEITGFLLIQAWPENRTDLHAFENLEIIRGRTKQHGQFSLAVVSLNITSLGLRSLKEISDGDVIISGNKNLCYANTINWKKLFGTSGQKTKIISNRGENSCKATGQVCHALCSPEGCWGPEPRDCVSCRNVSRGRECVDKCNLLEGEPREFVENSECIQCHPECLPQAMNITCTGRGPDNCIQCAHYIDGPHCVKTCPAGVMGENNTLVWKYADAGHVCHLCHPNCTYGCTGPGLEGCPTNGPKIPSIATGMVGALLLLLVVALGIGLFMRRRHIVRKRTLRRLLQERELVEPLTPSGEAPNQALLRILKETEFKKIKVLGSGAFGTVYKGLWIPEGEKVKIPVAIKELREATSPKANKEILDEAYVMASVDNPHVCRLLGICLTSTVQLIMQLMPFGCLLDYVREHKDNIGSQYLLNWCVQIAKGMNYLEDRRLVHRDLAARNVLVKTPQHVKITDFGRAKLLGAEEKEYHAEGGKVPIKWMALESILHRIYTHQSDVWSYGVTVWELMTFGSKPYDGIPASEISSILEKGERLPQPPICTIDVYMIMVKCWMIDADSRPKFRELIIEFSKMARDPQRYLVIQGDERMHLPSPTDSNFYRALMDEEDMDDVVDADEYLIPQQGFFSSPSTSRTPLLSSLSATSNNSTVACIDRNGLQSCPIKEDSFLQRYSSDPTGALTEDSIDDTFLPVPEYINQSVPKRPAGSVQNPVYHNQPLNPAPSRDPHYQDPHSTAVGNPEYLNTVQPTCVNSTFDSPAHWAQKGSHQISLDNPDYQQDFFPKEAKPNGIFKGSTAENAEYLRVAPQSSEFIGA
Chain of EGFR (P00533 25-1210): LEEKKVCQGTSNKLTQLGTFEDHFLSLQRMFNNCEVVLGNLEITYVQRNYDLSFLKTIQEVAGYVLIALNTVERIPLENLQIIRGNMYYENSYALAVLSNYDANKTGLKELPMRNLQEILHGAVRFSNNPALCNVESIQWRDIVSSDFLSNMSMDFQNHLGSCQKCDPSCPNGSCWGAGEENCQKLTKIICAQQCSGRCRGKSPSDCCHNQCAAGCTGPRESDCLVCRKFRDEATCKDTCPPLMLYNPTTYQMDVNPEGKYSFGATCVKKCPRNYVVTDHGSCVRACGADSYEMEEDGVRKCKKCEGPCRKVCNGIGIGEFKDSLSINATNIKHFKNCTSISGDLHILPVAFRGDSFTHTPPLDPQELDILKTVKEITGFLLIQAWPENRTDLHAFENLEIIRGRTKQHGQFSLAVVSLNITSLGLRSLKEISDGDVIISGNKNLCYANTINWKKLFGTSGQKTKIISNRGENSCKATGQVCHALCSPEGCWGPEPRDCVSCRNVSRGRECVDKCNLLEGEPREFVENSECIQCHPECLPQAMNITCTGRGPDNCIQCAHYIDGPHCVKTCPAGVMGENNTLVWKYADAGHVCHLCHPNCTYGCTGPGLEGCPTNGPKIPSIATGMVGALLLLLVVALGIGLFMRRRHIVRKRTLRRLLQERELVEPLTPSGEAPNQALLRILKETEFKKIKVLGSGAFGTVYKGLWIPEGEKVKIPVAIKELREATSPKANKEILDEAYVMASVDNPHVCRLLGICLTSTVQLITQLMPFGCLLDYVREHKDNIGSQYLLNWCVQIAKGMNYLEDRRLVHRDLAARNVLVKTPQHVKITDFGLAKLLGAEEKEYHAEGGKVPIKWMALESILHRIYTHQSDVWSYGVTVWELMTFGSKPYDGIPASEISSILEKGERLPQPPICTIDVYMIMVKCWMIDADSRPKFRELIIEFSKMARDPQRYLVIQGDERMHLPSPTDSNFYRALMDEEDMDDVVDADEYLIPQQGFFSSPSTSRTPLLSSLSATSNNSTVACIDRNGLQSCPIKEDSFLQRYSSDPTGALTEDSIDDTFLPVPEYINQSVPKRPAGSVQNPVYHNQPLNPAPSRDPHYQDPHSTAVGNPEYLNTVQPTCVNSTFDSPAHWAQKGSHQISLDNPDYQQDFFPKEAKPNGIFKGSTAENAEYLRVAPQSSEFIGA
Chain of EGFR (E746-A750del) (P00533 other isoform, or with tags, fused parts or gaps del E746-A750): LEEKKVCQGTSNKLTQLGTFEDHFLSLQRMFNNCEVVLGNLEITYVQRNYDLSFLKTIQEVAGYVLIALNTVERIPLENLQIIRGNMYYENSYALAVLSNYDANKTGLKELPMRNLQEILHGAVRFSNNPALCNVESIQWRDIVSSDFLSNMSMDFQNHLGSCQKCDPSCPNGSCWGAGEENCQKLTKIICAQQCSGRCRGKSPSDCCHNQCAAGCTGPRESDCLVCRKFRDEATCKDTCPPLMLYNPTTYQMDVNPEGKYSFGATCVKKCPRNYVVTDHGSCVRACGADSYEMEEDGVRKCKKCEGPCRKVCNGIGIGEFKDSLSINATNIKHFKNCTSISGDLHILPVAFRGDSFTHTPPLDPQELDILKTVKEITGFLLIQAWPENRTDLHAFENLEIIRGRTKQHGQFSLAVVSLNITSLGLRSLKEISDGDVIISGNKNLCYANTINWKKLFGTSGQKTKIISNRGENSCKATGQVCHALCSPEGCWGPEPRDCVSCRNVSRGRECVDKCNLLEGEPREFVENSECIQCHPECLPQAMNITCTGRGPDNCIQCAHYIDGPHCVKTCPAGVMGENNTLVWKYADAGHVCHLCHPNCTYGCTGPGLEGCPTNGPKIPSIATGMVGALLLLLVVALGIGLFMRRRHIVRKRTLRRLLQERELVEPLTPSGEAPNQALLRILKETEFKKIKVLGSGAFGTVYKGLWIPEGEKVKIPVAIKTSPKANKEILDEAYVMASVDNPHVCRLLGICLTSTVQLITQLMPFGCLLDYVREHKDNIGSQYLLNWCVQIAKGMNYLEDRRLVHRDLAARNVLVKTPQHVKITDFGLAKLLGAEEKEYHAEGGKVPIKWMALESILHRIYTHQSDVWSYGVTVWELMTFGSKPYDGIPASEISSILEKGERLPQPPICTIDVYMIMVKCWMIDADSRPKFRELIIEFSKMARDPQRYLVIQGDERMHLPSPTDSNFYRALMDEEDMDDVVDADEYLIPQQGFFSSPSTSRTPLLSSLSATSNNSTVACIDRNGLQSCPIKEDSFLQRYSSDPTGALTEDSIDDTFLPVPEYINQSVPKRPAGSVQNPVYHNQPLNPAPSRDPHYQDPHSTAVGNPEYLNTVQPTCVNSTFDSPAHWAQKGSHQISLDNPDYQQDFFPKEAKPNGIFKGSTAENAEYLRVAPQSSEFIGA

IC50 (NCI-H1975) | Kd (EGFR (T790M/L858R)) | Kd (EGFR) | Kd (EGFR (E746-A750del)) | SMILES | Tumor growth inhibition (TGI, %) in NCI-H1975 xenograft model ([1]; Day 14, 30 mg/kg) | Efficacy in the NCI-H1975 xenograft study (in words) [1] | Tumor growth inhibition (TGI, %) in NCI-H1975 xenograft model ([1]; Day 14, 6 mg/kg)
910 nM |  |  |  | C=CC(=O)Nc1cccc(Nc2nc(Nc3ccc(N4CCN(C(C)=O)CC4)cc3OC)ncc2C(F)(F)F)c1 [CO-1686, reference compound] | TGI = 83% |  | 
 | 0.54 nM | 84 nM | 26 nM | C=CC(=O)Nc1cccc(Nc2nc(Nc3ccc(N4CCN(C(C)=O)CC4)cc3)ncc2C(F)(F)F)c1 [Compound 8, N-[3-[[2-[4-(4-acetylpiperazin-1-yl)anilino]-5-(trifluoromethyl)pyrimidin-4-yl]amino]phenyl]prop-2-enamide] | TGI = 49% | good efficacy | 
< 10 nM | 0.037 nM | 15 nM | 4 nM | C=CC(=O)Nc1cccc(Nc2nc(Nc3ccc(N4CCN(CC)CC4)cc3)ncc2C(F)(F)F)c1 [Compound 9, N-[3-[[2-[4-(4-ethylpiperazin-1-yl)anilino]-5-(trifluoromethyl)pyrimidin-4-yl]amino]phenyl]prop-2-enamide] |  | good efficacy; also recorded: much better tumor growth inhibition compared with CO-1686 | TGI = 76%
150 nM | 0.28 nM |  |  | C=CC(=O)Nc1cccc(Nc2nc(Nc3ccc(N4CCN(CC)CC4)cc3OC)ncc2C(F)(F)F)c1 [Compound 10, N-[3-[[2-[4-(4-ethylpiperazin-1-yl)-2-methoxy-anilino]-5-(trifluoromethyl)pyrimidin-4-yl]amino]phenyl]prop-2-enamide] |  |  | 
67 nM |  |  |  | C=CC(=O)Nc1cccc(Oc2nc(Nc3ccc(N4CCN(C)CC4)cc3OC)ncc2Cl)c1 [WZ4002, reference compound] |  |  | 
